Data published in patent publication US20210101881A1 (Ancureall Pharmaceutical (Shanghai) Co., Ltd., priority 2018, published 2021).
Where two headings read alike, the source gives them in different places.

Tests used:
A549 = assay: Growth inhibition of CDK9-positive tumor cell line in vitro; format: cell-based, Human
Procedure: (§1) Measurement of the Inhibitory Activity of the Present Compound on the Growth of Various Types of CDK9-Positive Tumor Cell Lines In Vitro
(§2) The inventors selected representative CDK9-positive tumor cell lines for further determination of the compound activity. All cell lines used came from ATCC, JCRB, DSMZ and Chinese Academy of Sciences Cell Bank (ZK). Cell culture condition and method were based on the requirements of each cell line. No more than 3 passages were carried out in each culture in vitro. Monoclonal purification and STR identification of the cell line were conducted if necessary.

AN3-CA = assay: as above; format: cell-based; settings: Human endometrial cancer, read-out: Inhibitory activity (IC50) on growth in vitro, AN3-CA
Description: Test Example 3. Measurement of the Inhibitory Activity of the Present Compound on the Growth of Various Types of CDK9-Positive Tumor Cell Lines In Vitro
as §2, with “Tumor cell line is an effective cell model for studying the inhibitory activity of a drug on tumor growth in vitro. The” for “The”
Drug treatment, MTT assay and IC50 calculation were performed in accordance with Test Example 1.

TPC-1 = assay: as above; format: cell-based; settings: TPC1, Human thyroid cancer, read-out: Inhibitory activity (IC50) on growth in vitro, TPC-1
Procedure: as §1, §2

JIMT-1 = assay: as above; format: cell-based; settings: Human breast cancer, read-out: Inhibitory activity (IC50) on growth in vitro, JIMT-1
Procedure: as §1, §2

B-CPAP = assay: as above; format: cell-based; settings: BCPAP, Human thyroid cancer, read-out: Inhibitory activity (IC50) on growth in vitro, B-CPAP
Procedure: as §1, §2

Sk-ov-3 = assay: as above; format: cell-based; settings: Human ovarian cancer, read-out: Inhibitory activity (IC50) on growth in vitro, Sk-ov-3
Procedure: as §1, §2

NCI-H1975 = assay: as above; format: cell-based; settings: Human lung cancer, read-out: Inhibitory activity (IC50) on growth in vitro, NCI-H1975
Procedure: as §1, §2

AGS = assay: as above; format: cell-based; settings: Human stomach cancer, read-out: Inhibitory activity (IC50) on growth in vitro, AGS
Procedure: as §1, §2

HuCCT-1 = assay: as above; format: cell-based; settings: Human cholangiocarcinoma, read-out: Inhibitory activity (IC50) on growth in vitro, HuCCT-1
Procedure: as §1, §2

HCC1954 = assay: as above; format: cell-based; settings: Human breast cancer, read-out: Inhibitory activity (IC50) on growth in vitro, HCC1954
Procedure: as §1, §2

NCI-H1993 = assay: as above; format: cell-based; settings: Human lung cancer, read-out: Inhibitory activity (IC50) on growth in vitro, NCI-H1993
Procedure: as §1, §2

NCI-H460 = assay: as above; format: cell-based; settings: Human lung cancer, read-out: Inhibitory activity (IC50) on growth in vitro, NCI-H460
Procedure: as §1, §2

CAL-120 = assay: as above; format: cell-based; settings: Human breast cancer, read-out: Inhibitory activity (IC50) on growth in vitro, CAL-120
Procedure: as §1, §2

MDA-MB-436 = assay: as above; format: cell-based; settings: Human breast cancer, read-out: Inhibitory activity (IC50) on growth in vitro, MDA-MB-436
Procedure: as §1, §2

PC-9 = assay: as above; format: cell-based; settings: Human lung cancer, read-out: Inhibitory activity (IC50) on growth in vitro, PC-9
Procedure: as §1, §2

KG-1 = assay: as above; format: cell-based; settings: Human acute myeloid leukemia, read-out: Inhibitory activity (IC50) on growth in vitro, KG-1
Procedure: as §1, §2

Colo205 = assay: as above; format: cell-based; settings: COLO 205, Human intestinal cancer, read-out: Inhibitory activity (IC50) on growth in vitro, Colo205
Procedure: as §1, §2

NCI-N87 = assay: as above; format: cell-based; settings: Human stomach cancer, read-out: Inhibitory activity (IC50) on growth in vitro, NCI-N87
Procedure: as §1, §2

MDA-MB-453 = assay: as above; format: cell-based; settings: Human breast cancer, read-out: Inhibitory activity (IC50) on growth in vitro, MDA-MB-453
Procedure: as §1, §2

Kasumi-1 = assay: as above; format: cell-based; settings: Human acute myeloid leukemia, read-out: Inhibitory activity (IC50) on growth in vitro, Kasumi-1
Procedure: as §1, §2

MOLM13 cells = assay: Growth inhibition of CDK9-positive cell line MOLM13 in vitro (CCK8/MTT assay); format: cell-based, human; settings: Homo sapiens
[1] = Human lung cancer, A549, read-out: Inhibitory activity (IC50) on growth in vitro, A549
[2] = MOLM-13, MOLM13 cells, cultured 3 to 6 days, CCK8, read-out: IC50 of the compound for inhibiting cell growth, MOLM13 cells

Row | IC50 (TPC-1) | IC50 (JIMT-1) | IC50 (B-CPAP) | IC50 (Sk-ov-3) | IC50 (NCI-H1975) | IC50 (AGS) | IC50 (HuCCT-1) | IC50 (HCC1954) | IC50 (NCI-H460) | IC50 (CAL-120) | IC50 (PC-9) | IC50 (KG-1) | IC50 (Colo205) | IC50 (NCI-N87) | IC50 (Kasumi-1) | IC50 (MOLM13 cells; [2]) | Structure (SMILES) | IC50 (AN3-CA) | IC50 (NCI-H1993) | IC50 (MDA-MB-436) | IC50 (MDA-MB-453) | further results
1 | < 1 nM | < 1 nM | < 1 nM | < 1 nM | 1 to 10 nM | 1 to 10 nM | 1 to 10 nM | < 1 nM | 1 to 10 nM | < 1 nM | 1 to 10 nM | < 1 nM | 1 to 10 nM | 1 to 10 nM | < 1 nM | < 1 nM | CC(C)N1CCN(c2cccc(Nc3ncc(F)c(-n4cc(C(N)=O)c5ccccc54)n3)c2)CC1 [Compound 144, 1-{5-fluoro-2-[3-(4-isopropyl-piperazin-1-yl)-phenylamino]-pyrimidin-4-yl}-1H-indole-3-carboxamide] | < 1 nM | 1 to 10 nM | < 1 nM | < 1 nM | IC50 (A549; [1]): 1 to 10 nM
2 | 10 to 100 nM | 10 to 100 nM | 10 to 100 nM | 10 to 100 nM | 100 to 1000 nM | 100 to 1000 nM | 100 to 1000 nM | 1 to 10 nM | 100 to 1000 nM | 1 to 10 nM | 100 to 1000 nM | 10 to 100 nM | 100 to 1000 nM | 100 to 1000 nM | 1 to 10 nM | < 1 nM | Cc1cc(Nc2ncc(Cl)c(-n3cc(C(N)=O)c4ccccc43)n2)ccc1N1CCN(C(C)C)CC1 [Compound 60, 1-{5-chloro-2-[4-(4-isopropyl-piperazin-1-yl)-3-methyl-phenylamino]-pyrimidin-4-yl}-1H-indole-3-carboxamide] |  |  |  |  | 
3 | 1 to 10 nM | < 1 nM | 1 to 10 nM | < 1 nM | 1 to 10 nM | 1 to 10 nM | 1 to 10 nM | < 1 nM | 1 to 10 nM | < 1 nM | 1 to 10 nM | 1 to 10 nM | 1 to 10 nM | 1 to 10 nM | 1 to 10 nM | < 1 nM | CCN1CCN(c2cccc(Nc3ncc(F)c(-n4cc(C(N)=O)c5cc(F)ccc54)n3)c2)CC1 [Compound 161, 1-{2-[3-(4-ethyl-piperazin-1-yl)-phenylamino]-5-fluoro-pyrimidin-4-yl}-5-fluoro-1H-indole-3-carboxamide] |  | 10 to 100 nM | < 1 nM | < 1 nM | IC50 (A549; [1]): 1 to 10 nM

Row | Structure (SMILES) | IC50 (TPC-1) | IC50 (JIMT-1) | IC50 (B-CPAP) | IC50 (Sk-ov-3) | IC50 (NCI-H1975) | IC50 (AGS) | IC50 (HuCCT-1) | IC50 (HCC1954) | IC50 (NCI-H460) | IC50 (CAL-120) | IC50 (PC-9) | IC50 (KG-1) | IC50 (Colo205) | IC50 (NCI-N87) | IC50 (Kasumi-1) | IC50 (MOLM13 cells; [2]) | IC50 (AN3-CA) | IC50 (NCI-H1993) | IC50 (MDA-MB-436) | IC50 (MDA-MB-453) | further results
4 | CCN1CCN(c2cccc(Nc3ncc(F)c(-n4cc(C(N)=O)c5cc(OC)ccc54)n3)c2)CC1 [Compound 152, 1-{2-[3-(4-ethyl-piperazin-1-yl)-phenylamino]-5-fluoro-pyrimidin-4-yl}-5-methoxy-1H-indole-3-carboxamide] | 1 to 10 nM | < 1 nM | 1 to 10 nM | < 1 nM | 1 to 10 nM | 1 to 10 nM | 1 to 10 nM | < 1 nM | 1 to 10 nM | < 1 nM | 1 to 10 nM | 1 to 10 nM | 1 to 10 nM | 1 to 10 nM | 1 to 10 nM |  | < 1 nM | 1 to 10 nM | < 1 nM | < 1 nM | IC50 (A549; Homo sapiens, A549, read-out: Inhibitory activity (IC50) on growth in vitro, A549): 1 to 10 nM; IC50 (MOLM13 cells; MOLM-13, read-out: IC50 of the compound for inhibiting cell growth, MOLM13 cells): < 1 nM
5 | NC(=O)c1cn(-c2nc(Nc3cccc(N4CCN(C5CCOCC5)CC4)c3)ncc2F)c2ccccc12 [Compound 140, 1-(5-fluoro-2-{3-[4-(tetrahydro-pyran-4-yl)-piperazin-1-yl]-phenylamino}-pyrimidin-4-yl)-1H-indole-3-carboxamide] | < 1 nM | < 1 nM | < 1 nM | < 1 nM | 1 to 10 nM | 1 to 10 nM | 1 to 10 nM | < 1 nM | 1 to 10 nM | < 1 nM | 1 to 10 nM | < 1 nM | 1 to 10 nM | 1 to 10 nM | 1 to 10 nM | < 1 nM | < 1 nM | 1 to 10 nM | < 1 nM | < 1 nM | IC50 (A549; [1]): 1 to 10 nM
